Experimental data: patent US20060135571A1, “Imidazo(2,1-b)-1,3,4-thiadiazole sulfoxides and sulfones” (priority 2003, published 2006)

Experiments:
SCG neurons [1] = test: In vitro protection of SCG neurons from Taxol killing; format: cell-based, Sprague Dawley rats; details: Rattus norvegicus, Neuron, read-out: IC50, rescue from Taxol killing of SCG neurons
Procedure: Taxol™ is regularly used in breast cancer chemotherapy. In cancer cells Taxol™ binds to the cyto-skeletal protein tubulin, thereby inhibiting normal microtubular assembly and inducing cellular apoptosis. Despite its potency as an anti-tumour agent, Taxol™ is also toxic to neurons, inducing dose limiting peripheral neuropathies. The addition of Taxol™ (100 ng/mL) to cultured SCG neurons induces the degradation or loss of upwards of 80% of the neurons. The addition of selected compounds of Formula I to the cellular media, concurrently with Taxol™, protects upwards of 100% of the neurons, at drug concentrations ranging from 1 to 50 μM (see Example 74).
SCG neurons were isolated from day 1 neonatal Sprague Dawley rats, plated at a cell density of 10,000 cells/well, and incubated in Biowhittaker Utraculture containing 1% Penstrep, 1% L-glutamine, 0.7% ARAC, 3% rat serum, and NGF (50 ng/mL, Calomone Labs) at 37° C., under a 5% CO2 atmosphere. After 5 days the cells were treated with compound and Taxol™ (50 ng/mL). Viability was assessed 48 hours later using MTS (Promega) staining.

SCG neurons [2] = test: Protection of SCG neurons from anti-NGF killing; format: cell-based, Sprague Dawley rats; details: Rattus norvegicus, Neuron; anti-NGF antibody, 48 hours, Alamar Blue viability; read-out: IC(50), rescue from anti-NGF killing of SCG neurons
Procedure: Neurotrophins are critical to the growth, development, and survival of small fiber neurons of the PNS. […] In a typical experiment SCG neurons are cultured in the presence of NGF, which induces survival and neurite out-growth. After 5 days the NGF is removed by either the addition of anti-NGF polyclonal antibody (Sigma) or by repeated washings (4 times) with NGF free media, resulting in the apoptosis of up to 90% of the neurons after 48 hours, as measured by MTS staining. The addition of selected compounds of Formula I to the final cellular media provides upwards of 100% protection, at drug concentrations ranging from 1 to 50 μM (see Example 73).
SCG neurons were isolated from day 1 neonatal Sprague Dawley rats, plated at a cell density of 5,000 cells/well, and incubated in Biowhittaker Utraculture containing 1% Penstrep, 1% L-glutamine, 0.7% ARAC, 3% rat serum, and NGF (50 ng/mL, Calomone Labs), at 37° C., under a 5% CO2 atmosphere. After 4 days the cells were treated with anti-NGF antibody (Sigma). At this time compound was added and the cells were maintained serum and NGF free for 48 hours, at which time viability was assessed using Alamar Blue (Medicorp) staining.

SCG neurons [3] = test: In vitro protection of SCG neurons from cisplatin killing; format: cell-based, Sprague Dawley rats; details: Rattus norvegicus, Neuron; cisplatin 3 μg/mL, 48 hours, MTS viability; read-out: IC50, protection of SCG neurons against cisplatin killing
Procedure: The mechanism of Cisplatin's anti-cancer action is not fully understood, but is believed to involve DNA binding and cleavage. Cisplatin is highly toxic to neurons. The addition of cisplatin (3 μg/mL) to cultured SCG neurons induces apoptosis of upwards of 80% of the neurons. The addition of selected compounds of Formula I to the cellular media, concurrently with cisplatin, protects upwards of 100% of the neurons, at drug concentrations ranging from 1 to 50 μM (see Example 75).
SCG neurons were isolated from day 1 neonatal Sprague Dawley rats, plated at a cell density of 10,000 cells/well, and incubated in Biowhittaker Utraculture containing 1% Penstrep, 1% L-glutamine, 0.7% ARAC, 3% rat serum, and NGF (50 ng/mL, Calomone Labs) at 37° C., under a 5% CO2 atmosphere. After 5 days the cells were treated with compound and cisplatin (3 μg/mL). Viability was assessed 48 hours later using MTS (Promega) staining.

[4] = Aqueous solubility in saline; format: physicochemical; details: saline or isotonic, acid salt
Procedure: Select compounds bearing a basic moiety display good aqueous solubility as the corresponding acid salt. For example, compound 56.2HCl is soluble at >100 mg/mL in saline, allowing for the ready application of these compounds via multiple routes of administration either oral or percutaneous.

[5] = system: Daoy medulloblastoma cells; test: Sulforhodamine B assay, killing of Daoy medulloblastoma cells; format: cell-based
Procedure: (§1) Compound represented by Formula I were tested for anti-cancer properties using the sulforhodamine B assay. Human neuroblastomas SK-N-AS, and SH-SY5Y were plated in 96 well plates at a density of 15 000 cells/well. Daoy medulloblastoma cells were plated at a density of 2000 cells/well. Cells were cultured in RPMI supplemented with 5% fetal bovine serum and test compounds. After 72 hours of culture cell growth was assessed by sulforhodamine B. Cellular protein was precipitated and fixed with trichloroacetic acid and detected by incubation with sulforhodamine B. Bound dye solubilized in trizma base and was assessed by absorbance at 515 nm. Compound 28 caused either cell death or inhibited cellular proliferation of the SK-N-AS and SH-SY5Y neuroblastoma and daoy medulloblastoma cells with ED50s of 7, 5, and 2 µM, respectively.
(§2) Human neuroblastomas SK-N-AS, and SH-SY5Y were plated in 96 well plates at a density of 15 000 cells/well. Daoy medulloblastoma cells were plated at a density of 2000 cells/well. Cells were cultured in RPMI supplemented with 5% fetal bovine serum and test compound at various concentrations. After 72 hours of culture cell growth was assessed by sulforhodamine B. Cellular protein was precipitated and fixed with trichloroacetic acid and detected by incubation with sulforhodamine B. Bound dye solublized in trizma base and was assessed by absorbance at 515 nm.

SH-SY5Y = test: Sulforhodamine B assay, killing of SH-SY5Y neuroblastoma cells; format: cell-based, Human
Procedure: as §1, §2

SK-N-AS = test: Sulforhodamine B assay, killing of SK-N-AS neuroblastoma cells; format: cell-based, Human
Procedure: as §1, §2

[6] = Taxol 50 ng/mL, 48 hours, MTS viability

| Structure (SMILES) | IC50 (SCG neurons [1]; [6]) | also measured |
| --- | --- | --- |
| CC(C)(C)OC(=O)NCC[S+]([O-])c1nn2cc(-c3ccccn3)nc2s1 (stereo not drawn) [Compound 35] | 2000 nM | – |
| [O-][S+](CCN1CCN(Cc2ccccc2)CC1)c1nn2c(-c3ccccc3)cnc2s1 (stereo not drawn) [Compound 66] | 10000 nM | – |
| [O-][S+](CCc1ccccc1)c1nn2cc(-c3ccc(Oc4ccc(Cl)cc4)cc3)nc2s1 (stereo not drawn) [Compound 3] | 7000 nM | IC50 (SCG neurons [2]): 8000 nM |
| CS(=O)(=O)NCCS(=O)(=O)c1nn2cc(-c3ccccc3)nc2s1 [Compound 45] | – | IC50 (SCG neurons [3]): 1000 nM |
| CN1CCCN(CC[S+]([O-])c2nn3cc(-c4ccccc4)nc3s2)CC1 (stereo not drawn) [Compound 56.2HCl] | – | solubility [4]: > 100 mg/mL |
| CC(=O)N1CCN(CC[S+]([O-])c2nn3cc(-c4ccccc4)nc3s2)CC1 (stereo not drawn) [Compound 60] | 1000 nM | – |
| CC[S+]([O-])c1nn2cc(-c3cnccn3)nc2s1 (stereo not drawn) [Compound 40] | 3000 nM | – |
| [O-][S+](Cc1ccncc1)c1nn2cc(-c3ccc(Oc4ccc(Cl)cc4)cc3)nc2s1 (stereo not drawn) [Compound 17] | 2000 nM | IC50 (SCG neurons [3]): 300 nM |
| CC(=O)Nc1ccc(S(=O)(=O)c2nn3cc(-c4ccccn4)nc3s2)cc1 [Compound 52] | 1000 nM | – |
| CN1CCN(CC[S+]([O-])c2nn3cc(-c4ccc5c(c4)OCCCO5)nc3s2)CC1 (stereo not drawn) [Compound 71] | 3000 nM | – |
| O=S(=O)(Cc1cccnc1)c1nn2cc(-c3ccccc3)nc2s1 [Compound 8] | 800 nM | – |
| O=S(=O)(Cc1ccccn1)c1nn2cc(-c3ccc(Oc4ccc(Cl)cc4)cc3)nc2s1 [Compound 16] | 500 nM | IC50 (SCG neurons [3]): 500 nM |
| CC[S+]([O-])c1nn2cc(-c3ccc(OCCO)cc3)nc2s1 (stereo not drawn) [Compound 32] | 5000 nM | – |
| CN1CCN(CC[S+]([O-])c2nn3cc(-c4ccc(F)cc4)nc3s2)CC1 (stereo not drawn) [Compound 70] | 1000 nM | IC50 (SCG neurons [3]): 1000 nM |
| CN1CCCN(CC[S+]([O-])c2nn3cc(-c4ccccc4)nc3s2)CC1 (stereo not drawn) [Compound 56] | 1000 nM | – |
| CC[S+]([O-])c1nn2cc(-c3ccccn3)nc2s1 (stereo not drawn) [Compound 37] | 2000 nM | – |
| CC(=O)N1CCN(CC[S+]([O-])c2nn3c(-c4ccccc4)cnc3s2)CC1 (stereo not drawn) [Compound 65] | 10000 nM | – |
| [O-][S+](Cc1ccccn1)c1nn2cc(-c3ccccc3)nc2s1 (stereo not drawn) [Compound 5] | 1000 nM | – |
| CN1CCN(CCC[S+]([O-])c2nn3cc(-c4ccccc4)nc3s2)CC1 (stereo not drawn) [Compound 69] | 1000 nM | IC50 (SCG neurons [3]): 1000 nM |
| [O-][S+](CCN1CCC(Cc2ccccc2)CC1)c1nn2cc(-c3ccccc3)nc2s1 (stereo not drawn) [Compound 63] | – | IC50 (SCG neurons [1]; 48 h): 10000 nM |
| O=S(=O)(Cc1ccccc1)c1nn2cc(-c3c(F)c(F)c(F)c(F)c3F)nc2s1 [Compound 2] | – | IC50 (SCG neurons [3]): 800 nM |

| Structure (SMILES) | IC50 (SCG neurons [1]; [6]) | also measured |
| --- | --- | --- |
| NCCS(=O)(=O)c1nn2cc(-c3ccccc3)nc2s1 [Compound 44] | 2000 nM | IC50 (SCG neurons [3]): 2000 nM |
| [O-][S+](CCc1ccccn1)c1nn2cc(-c3ccc(F)cc3)nc2s1 (stereo not drawn) [Compound 19] | 6000 nM | IC50 (SCG neurons [3]): 800 nM |
| [O-][S+](Cc1ccccn1)c1nn2cc(-c3cccc(F)c3)nc2s1 (stereo not drawn) [Compound 13] | 1000 nM | – |
| CCS(=O)(=O)c1nn2cc(-c3ccc(OCCO)cc3)nc2s1 [Compound 33] | 1000 nM | – |
| [O-][S+](Cc1ccncc1)c1nn2cc(-c3ccccc3)nc2s1 (stereo not drawn) [Compound 9] | 800 nM | – |
| [O-][S+](Cc1ccccn1)c1nn2cc(-c3ccc(Oc4ccc(Cl)cc4)cc3)nc2s1 (stereo not drawn) [Compound 15] | 1000 nM | – |
| CN1CCN(CC[S+]([O-])c2nn3cc(-c4ccccc4)nc3s2)CC1 (stereo not drawn) [Compound 54] | 3000 nM | – |
| O=S(=O)(Cc1ccncc1)c1nn2cc(-c3ccccc3)nc2s1 [Compound 10] | 800 nM | – |
| [O-][S+](CCN1CCCCC1)c1nn2cc(-c3ccccc3)nc2s1 (stereo not drawn) [Compound 61] | 10000 nM | – |
| [O-][S+](Cc1ccccc1)c1nn2cc(-c3c(F)c(F)c(F)c(F)c3F)nc2s1 (stereo not drawn) [Compound 1] | 1000 nM | – |
| CN(C)CC(=O)NCCS(=O)(=O)c1nn2cc(-c3ccc(F)cc3)nc2s1 [Compound 48] | 800 nM | – |
| [O-][S+](CCN1CCC(O)CC1)c1nn2cc(-c3ccccc3)nc2s1 (stereo not drawn) [Compound 62] | 10000 nM | – |
| CN(C)CC[S+]([O-])c1nn2cc(-c3cccc(F)c3)nc2s1 (stereo not drawn) [Compound 29] | 1000 nM | IC50 (SCG neurons [3]): 3000 nM |
| O=S(=O)(Cc1ccccn1)c1nn2cc(-c3cccc(F)c3)nc2s1 [Compound 14] | 3000 nM | – |
| O=S(=O)(Cc1ccccn1)c1nn2cc(-c3ccccc3)nc2s1 [Compound 6] | 1500 nM | – |
| [O-][S+](CCN1CCNCC1)c1nn2cc(-c3ccccc3)nc2s1 (stereo not drawn) [Compound 58] | 1000 nM | – |
| [O-][S+](CCN1CCOCC1)c1nn2cc(-c3ccc(F)cc3)nc2s1 (stereo not drawn) [Compound 28] | 5000 nM | IC50 (SCG neurons [3]): 1000 nM; ED50, cell death or inhibited cellular proliferation ([5]; 72 hours, sulforhodamine B): 2000 nM; concentration at which the cell line is potently killed in vitro (as low as) ([5]; FIG. 1, sulforhodamine B): ≥ 5 µM; ED50, cell death or inhibited cellular proliferation (SH-SY5Y; 72 hours, sulforhodamine B): 5 µM; concentration at which the cell line is potently killed in vitro (as low as) (SH-SY5Y; FIG. 1, sulforhodamine B): ≥ 5 µM; ED50, cell death or inhibited cellular proliferation (SK-N-AS; 72 hours, sulforhodamine B): 7000 nM; concentration at which the cell line is potently killed in vitro (as low as) (SK-N-AS; FIG. 1, sulforhodamine B): ≥ 5 µM |
| O=S(=O)(Cc1ccncc1)c1nn2cc(-c3ccc(Oc4ccc(Cl)cc4)cc3)nc2s1 [Compound 18] | – | IC50 (SCG neurons [3]): 300 nM |
| O=S(=O)(CCc1ccccc1)c1nn2cc(-c3ccc(Oc4ccc(Cl)cc4)cc3)nc2s1 [Compound 4] | 1000 nM | IC50 (SCG neurons [2]): 6000 nM |
| [O-][S+](Cc1ccncc1)c1nn2cc(-c3ccc(N4CCOCC4)cc3)nc2s1 (stereo not drawn) [Compound 30] | > 10000 nM | – |
